Results from paper PMC10108266, “Pharmacokinetic characteristics of golidocitinib, a highly selective JAK1 inhibitor, in healthy adult participants” (Frontiers in Immunology, 2023).

Tests used:
Type in all cases: in vivo, human
[1] = Safety (TEAEs), JACKPOT2 SAD cohorts; details: n = 4
Source text: (§1) Safety assessments included monitoring of adverse events/serious adverse events, clinical safety laboratory tests (clinical chemistry, hematology, coagulation, and urinalysis tests), 12-lead ECG, vital signs (blood pressure, pulse rate, and respiratory rate), and pulmonary function. All adverse events were coded using the Medical Dictionary for Regulatory Activities (MedDRA), version 22.0. The CTCAE 5.0 was used to define the intensity of AEs.

[2] = Safety (TEAEs), JACKPOT2 food effect cohort
Source text: as §1

[3] = JACKPOT3 SAD urinary PK (100 mg); details: single dose 100 mg
Protocol: After single oral administration, serial blood samples were obtained on Day 1 at pre-dose, and at 0.5, 1, 1.5, 2, 3, 4, 6, 8, 12, 24 (Day 2), 48 (Day 3), 72 (Day 4), 120 (Day 6), 168 (Day 8) and 216 (Day 10) hours post-dose for plasma PK analysis. Urine samples were collected during the collection intervals of 0-4, 4-10, 10-24, 24-48, 48-72, 72-96, 96-120, 120-144, and 144-168 hours following a single oral dose of 100 mg for urine PK analysis. Validated LC/MS methods were used for the determination of golidocitinib in human plasma and urine by Frontage Laboratories Inc. (Shanghai). This method was cross validated by Frontage Laboratories Inc. (New Jersey, USA) and met the acceptance criteria.
The mean (SD) amount of golidocitinib excreted in the urine over the collection period and renal clearance are presented in Table 2B . The average amount of golidocitinib excreted in the urine increased in an approximately dose proportional manner from 25 mg to 100 mg. […] The renal excretion fraction (Fe0-t) is helpful to compare the renal clearance (CLr) with total clearance (CLtotal) and determine the contribution of renal clearance in the drug elimination. It was calculated by the equation Fe0-t = CLr/CLtotal. The CL/F values were obtained from the two Phase I studies after the oral administration. Since the pharmacokinetics of golidocitinib after intravenous injection was not studied, the bioavailability value (F) was calculated by physiologically based pharmacokinetic (PBPK) model that incorporated compound specific information and independent prior knowledge on the physiology and biology at the organism.

COc1nn(C)cc1Nc1nccc(-c2c[nH]c3c(NC(=O)[C@@H](C)N4CCN(C)CC4)cccc23)n1 [golidocitinib, (2R)-N-[3-[2-[(3-Methoxy-1-methyl-pyrazol-4-yl)amino]pyrimidin-4-yl]-1H-indol-7-yl]-2-(4-methylpiperazin-1-yl)propenamide]
ALT Increased ([1]; 5 mg single dose): 0 n (%) | AST Increased ([1]; 5 mg single dose): 0 n (%) | Anemia ([1]; 5 mg single dose): 1 (25.0%) n (%) | Blood and Lymphatic System Disorders ([1]; 5 mg single dose): 2 (50.0%) n (%) | Chest Discomfort ([1]; 5 mg single dose): 0 n (%) | Dyspnea ([1]; 5 mg single dose): 0 n (%) | Eosinophilia ([1]; 5 mg single dose): 2 (50.0%) n (%) | General Disorders and Administration Site Conditions ([1]; 5 mg single dose): 0 n (%) | Investigations ([1]; 5 mg single dose): 0 n (%) | N-Terminal Pro-BNP ([1]; 5 mg single dose): 0 n (%) | Nasal Congestion ([1]; 5 mg single dose): 1 (25.0%) n (%) | Neutropenia ([1]; 5 mg single dose): 0 n (%) | Oropharyngeal Pain ([1]; 5 mg single dose): 1 (25.0%) n (%) | Respiratory, Thoracic and Mediastinal Disorders ([1]; 5 mg single dose): 2 (50.0%) n (%) | Subjects with at least one TEAE ([1]; 5 mg single dose): 2 (50.0%) n (%) | Thrombocytosis ([1]; 5 mg single dose): 0 n (%) | ALT Increased ([1]; 20 mg single dose): 0 n (%) | AST Increased ([1]; 20 mg single dose): 0 n (%) | Anemia ([1]; 20 mg single dose): 0 n (%) | Blood and Lymphatic System Disorders ([1]; 20 mg single dose): 2 (50.0%) n (%) | Chest Discomfort ([1]; 20 mg single dose): 0 n (%) | Dyspnea ([1]; 20 mg single dose): 0 n (%) | Eosinophilia ([1]; 20 mg single dose): 0 n (%) | General Disorders and Administration Site Conditions ([1]; 20 mg single dose): 0 n (%) | Investigations ([1]; 20 mg single dose): 0 n (%) | N-Terminal Pro-BNP ([1]; 20 mg single dose): 0 n (%) | Nasal Congestion ([1]; 20 mg single dose): 0 n (%) | Neutropenia ([1]; 20 mg single dose): 1 (25.0%) n (%) | Oropharyngeal Pain ([1]; 20 mg single dose): 0 n (%) | Respiratory, Thoracic and Mediastinal Disorders ([1]; 20 mg single dose): 0 n (%) | Subjects with at least one TEAE ([1]; 20 mg single dose): 2 (50.0%) n (%) | Thrombocytosis ([1]; 20 mg single dose): 1 (25.0%) n (%) | ALT Increased ([1]; 50 mg single dose): 0 n (%) | AST Increased ([1]; 50 mg single dose): 0 n (%) | Anemia ([1]; 50 mg single dose): 0 n (%) | Blood and Lymphatic System Disorders ([1]; 50 mg single dose): 0 n (%) | Chest Discomfort ([1]; 50 mg single dose): 0 n (%) | Dyspnea ([1]; 50 mg single dose): 0 n (%) | Eosinophilia ([1]; 50 mg single dose): 0 n (%) | General Disorders and Administration Site Conditions ([1]; 50 mg single dose): 0 n (%) | Investigations ([1]; 50 mg single dose): 1 (25.0%) n (%) | N-Terminal Pro-BNP ([1]; 50 mg single dose): 1 (25.0%) n (%) | Nasal Congestion ([1]; 50 mg single dose): 0 n (%) | Neutropenia ([1]; 50 mg single dose): 0 n (%) | Oropharyngeal Pain ([1]; 50 mg single dose): 0 n (%) | Respiratory, Thoracic and Mediastinal Disorders ([1]; 50 mg single dose): 0 n (%) | Subjects with at least one TEAE ([1]; 50 mg single dose): 1 (25.0%) n (%) | Thrombocytosis ([1]; 50 mg single dose): 0 n (%) | ALT Increased ([1]; 100 mg single dose): 0 n (%) | AST Increased ([1]; 100 mg single dose): 0 n (%) | Anemia ([1]; 100 mg single dose): 0 n (%) | Blood and Lymphatic System Disorders ([1]; 100 mg single dose): 1 (25.0%) n (%) | Chest Discomfort ([1]; 100 mg single dose): 1 (25.0%) n (%) | Dyspnea ([1]; 100 mg single dose): 0 n (%) | Eosinophilia ([1]; 100 mg single dose): 0 n (%) | General Disorders and Administration Site Conditions ([1]; 100 mg single dose): 1 (25.0%) n (%) | Investigations ([1]; 100 mg single dose): 0 n (%) | N-Terminal Pro-BNP ([1]; 100 mg single dose): 0 n (%) | Nasal Congestion ([1]; 100 mg single dose): 0 n (%) | Neutropenia ([1]; 100 mg single dose): 0 n (%) | Oropharyngeal Pain ([1]; 100 mg single dose): 0 n (%) | Respiratory, Thoracic and Mediastinal Disorders ([1]; 100 mg single dose): 0 n (%) | Subjects with at least one TEAE ([1]; 100 mg single dose): 1 (25.0%) n (%) | Thrombocytosis ([1]; 100 mg single dose): 1 (25.0%) n (%) | ALT Increased ([1]; 150 mg single dose): 0 n (%) | AST Increased ([1]; 150 mg single dose): 0 n (%) | Anemia ([1]; 150 mg single dose): 0 n (%) | Blood and Lymphatic System Disorders ([1]; 150 mg single dose): 0 n (%) | Chest Discomfort ([1]; 150 mg single dose): 0 n (%) | Dyspnea ([1]; 150 mg single dose): 0 n (%) | Eosinophilia ([1]; 150 mg single dose): 0 n (%) | General Disorders and Administration Site Conditions ([1]; 150 mg single dose): 0 n (%) | Investigations ([1]; 150 mg single dose): 0 n (%) | N-Terminal Pro-BNP ([1]; 150 mg single dose): 0 n (%) | Nasal Congestion ([1]; 150 mg single dose): 0 n (%) | Neutropenia ([1]; 150 mg single dose): 0 n (%) | Oropharyngeal Pain ([1]; 150 mg single dose): 0 n (%) | Respiratory, Thoracic and Mediastinal Disorders ([1]; 150 mg single dose): 0 n (%) | Subjects with at least one TEAE ([1]; 150 mg single dose): 0 n (%) | Thrombocytosis ([1]; 150 mg single dose): 0 n (%) | Alanine Aminotransferase Increased ([2]; 50 mg (Fasted), n = 12): 1 (8.3%) n (%) | Anemia ([2]; 50 mg (Fasted), n = 12): 0 n (%) | Aspartate Aminotransferase Increased ([2]; 50 mg (Fasted), n = 12): 0 n (%) | Blood Lactate Dehydrogenase Increased ([2]; 50 mg (Fasted), n = 12): 0 n (%) | Blood and Lymphatic System Disorders ([2]; 50 mg (Fasted), n = 12): 0 n (%) | Cardiac Disorders ([2]; 50 mg (Fasted), n = 12): 1 (8.3%) n (%) | Cough ([2]; 50 mg (Fasted), n = 12): 0 n (%) | Extrasystoles ([2]; 50 mg (Fasted), n = 12): 1 (8.3%) n (%) | Headache ([2]; 50 mg (Fasted), n = 12): 0 n (%) | Investigations ([2]; 50 mg (Fasted), n = 12): 2 (16.7%) n (%) | Lipase Increased ([2]; 50 mg (Fasted), n = 12): 1 (8.3%) n (%) | Nervous System Disorders ([2]; 50 mg (Fasted), n = 12): 0 n (%) | Respiratory, Thoracic and Mediastinal Disorders ([2]; 50 mg (Fasted), n = 12): 0 n (%) | Rhinorrhea ([2]; 50 mg (Fasted), n = 12): 0 n (%) | Subjects with at least one TEAE ([2]; 50 mg (Fasted), n = 12): 3 (25.0%) n (%) | Alanine Aminotransferase Increased ([2]; 50 mg (Fed), n = 11): 3 (27.3%) n (%) | Anemia ([2]; 50 mg (Fed), n = 11): 1 (9.1%) n (%) | Aspartate Aminotransferase Increased ([2]; 50 mg (Fed), n = 11): 2 (18.2%) n (%) | Blood Lactate Dehydrogenase Increased ([2]; 50 mg (Fed), n = 11): 1 (9.1%) n (%) | Blood and Lymphatic System Disorders ([2]; 50 mg (Fed), n = 11): 1 (9.1%) n (%) | Cardiac Disorders ([2]; 50 mg (Fed), n = 11): 0 n (%) | Cough ([2]; 50 mg (Fed), n = 11): 1 (9.1%) n (%) | Extrasystoles ([2]; 50 mg (Fed), n = 11): 0 n (%) | Headache ([2]; 50 mg (Fed), n = 11): 1 (9.1%) n (%) | Investigations ([2]; 50 mg (Fed), n = 11): 4 (36.4%) n (%) | Lipase Increased ([2]; 50 mg (Fed), n = 11): 1 (9.1%) n (%) | Nervous System Disorders ([2]; 50 mg (Fed), n = 11): 1 (9.1%) n (%) | Respiratory, Thoracic and Mediastinal Disorders ([2]; 50 mg (Fed), n = 11): 2 (18.2%) n (%) | Rhinorrhea ([2]; 50 mg (Fed), n = 11): 2 (18.2%) n (%) | Subjects with at least one TEAE ([2]; 50 mg (Fed), n = 11): 7 (63.6%) n (%) | discontinuation due to AE ([2]; 50 mg, fasted state, AE mild, resolved within 2 hours without treatment): one subject was discontinued due to an AE of trigeminy | CL renal ([3]; human, urine and plasma, oral, Ae0-t/AUC0-t, mean (SD)): 67.8 mL/min | CLtotal ([3]; CL/F * F (0.7 from PBPK model)): 15.0 L/h | Fe0-t ([3]; CLr/CLtotal): 27.2% | Ae0-t ([3]; urine 0-168 hour, mean (SD)): 19.5 (6.22) mg
